From patent publication US5441941A, “1,2-dihydroellipticines with activity against CNS specific cancer” (The United States of America as represented by the …, priority 1993, dated 1995)

Assays:
HCC-2998 = assay: cells; conditions: Homo sapiens
SK-OV-3 = assay: NCI in vitro screen, SRB percent growth, Ovarian Cancer
OVCAR-5 = assay: as above
COLO 205 = assay: NCI in vitro screen, SRB percent growth, Colon Cancer
HOP-62 = assay: NCI in vitro screen, SRB percent growth, Non-Small Cell Lung Cancer
IGROV1 = assay: NCI in vitro screen, SRB percent growth, Ovarian Cancer
HCT-15 = assay: NCI in vitro screen, SRB percent growth, Colon Cancer
SK-MEL-28 = assay: NCI in vitro screen, SRB percent growth, Melanoma
SNB-78 = assay: NCI in vitro screen, SRB percent growth, CNS Cancer
LOX IMVI = assay: NCI in vitro screen, SRB percent growth, Melanoma
A549/ATCC = assay: NCI in vitro screen, SRB percent growth, Non-Small Cell Lung Cancer
ACHN = assay: NCI in vitro screen, SRB percent growth, Renal Cancer
RPMI-8226 = assay: cells; conditions: Homo sapiens
OVCAR-8 = assay: NCI in vitro screen, SRB percent growth, Ovarian Cancer
SNB-19 = assay: NCI in vitro screen, SRB percent growth, CNS Cancer
HL-60 (TB) = assay: NCI in vitro screen, SRB percent growth, Leukemia
[1] = HCC 2998, read-out: Percent Growth
[2] = Log10 Concentration -4.0, 100 µM
[3] = Log10 Concentration -7.0, 0.1 µM
[4] = RPMI-8226, read-out: Percent Growth

## COc1ccc2[nH]c3c(C)c4c(c(C)c3c2c1)CN(C)C=C4 [Formula VII]
HCC-2998; HCC 2998
  GI50: 4.74 µM
HCC-2998; HCC 2998, read-out: LC-50
  CC50: 43.9 µM
HCC-2998; [1]
  activity at 0.01 µM: 111%
  activity at 0.1 µM: 90%
  activity at 1 µM: 98%
  activity at 10 µM: 27%
  activity at 100 µM: -93%
HCC-2998; HCC 2998, read-out: TGI
  IC (TGI): 16.8 µM
SK-OV-3; [2]
  Percent Growth: -23%
SK-OV-3; Log10 Concentration -5.0
  Percent Growth: 148%
SK-OV-3; Log10 Concentration -6.0, 1 µM
  Percent Growth: 167%
SK-OV-3; [3]
  Percent Growth: 159%
SK-OV-3; Log10 Concentration -8.0
  Percent Growth: 192%
SK-OV-3; PG=0
  TGI: 73.4 µM
SK-OV-3; PG=+50
  GI50: 73.4 µM
SK-OV-3; read-out: LC-50, PG=-50
  CC50: > 100 µM
OVCAR-5; [2]
  Percent Growth: -10%
OVCAR-5; Log10 Concentration -5.0
  Percent Growth: 70%
OVCAR-5; Log10 Concentration -6.0, 1 µM
  Percent Growth: 119%
OVCAR-5; [3]
  Percent Growth: 136%
OVCAR-5; Log10 Concentration -8.0
  Percent Growth: 133%
OVCAR-5; PG=0
  TGI: 75.5 µM
OVCAR-5; PG=+50
  GI50: 17.8 µM
OVCAR-5; read-out: LC-50, PG=-50
  CC50: > 100 µM
COLO 205; [2]
  Percent Growth: -72%
COLO 205; [3]
  Percent Growth: 91%
COLO 205; Log10 Concentration -8.0
  Percent Growth: 99%
COLO 205; PG=0
  TGI: 5.6 µM
COLO 205; PG=+50
  GI50: 1.42 µM
COLO 205; read-out: LC-50, PG=-50
  CC50: 37.1 µM
HOP-62; [2]
  Percent Growth: -81%
HOP-62; Log10 Concentration -5.0
  Percent Growth: -57%
HOP-62; Log10 Concentration -6.0, 1 µM
  Percent Growth: 14%
HOP-62; [3]
  Percent Growth: 106%
HOP-62; Log10 Concentration -8.0
  Percent Growth: 115%
HOP-62; PG=0
  TGI: 1.58 µM
HOP-62; PG=+50
  GI50: 0.406 µM
HOP-62; read-out: LC-50, PG=-50
  CC50: 7.89 µM
IGROV1; [2]
  Percent Growth: -20%
IGROV1; Log10 Concentration -5.0
  Percent Growth: 14%
IGROV1; Log10 Concentration -6.0, 1 µM
  Percent Growth: 47%
IGROV1; [3]
  Percent Growth: 80%
IGROV1; Log10 Concentration -8.0
  Percent Growth: 105%
IGROV1; PG=0
  TGI: 25.3 µM
IGROV1; PG=+50
  GI50: 0.819 µM
IGROV1; read-out: LC-50, PG=-50
  CC50: > 100 µM
HCT-15; [2]
  Percent Growth: 16%
HCT-15; Log10 Concentration -5.0
  Percent Growth: 96%
HCT-15; Log10 Concentration -6.0, 1 µM
  Percent Growth: 111%
HCT-15; [3]
  Percent Growth: 114%
HCT-15; Log10 Concentration -8.0
  Percent Growth: 118%
HCT-15; PG=0
  TGI: > 100 µM
HCT-15; PG=+50
  GI50: 37.7 µM
HCT-15; read-out: LC-50, PG=-50
  CC50: > 100 µM
SK-MEL-28; [2]
  Percent Growth: -75%
SK-MEL-28; Log10 Concentration -5.0
  Percent Growth: 4%
SK-MEL-28; Log10 Concentration -6.0, 1 µM
  Percent Growth: 91%
SK-MEL-28; [3]
  Percent Growth: 105%
SK-MEL-28; Log10 Concentration -8.0
  Percent Growth: 101%
SK-MEL-28; PG=0
  TGI: 11.3 µM
SK-MEL-28; PG=+50
  GI50: 2.95 µM
SK-MEL-28; read-out: LC-50, PG=-50
  CC50: 48.6 µM
SNB-78; [2]
  Percent Growth: -26%
SNB-78; Log10 Concentration -5.0
  Percent Growth: -18%
SNB-78; Log10 Concentration -6.0, 1 µM
  Percent Growth: 41%
SNB-78; [3]
  Percent Growth: 98%
SNB-78; Log10 Concentration -8.0
  Percent Growth: 98%
SNB-78; PG=0
  TGI: 4.9 µM
SNB-78; PG=+50
  GI50: 0.683 µM
SNB-78; read-out: LC-50, PG=-50
  CC50: > 100 µM
LOX IMVI; [2]
  Percent Growth: -19%
LOX IMVI; Log10 Concentration -5.0
  Percent Growth: 58%
LOX IMVI; Log10 Concentration -6.0, 1 µM
  Percent Growth: 119%
LOX IMVI; Log10 Concentration -8.0
  Percent Growth: 129%
LOX IMVI; PG=0
  TGI: 56.9 µM
LOX IMVI; PG=+50
  GI50: 12.8 µM
LOX IMVI; read-out: LC-50, PG=-50
  CC50: > 100 µM
A549/ATCC; [2]
  Percent Growth: -26%
A549/ATCC; Log10 Concentration -5.0
  Percent Growth: 10%
A549/ATCC; Log10 Concentration -6.0, 1 µM
  Percent Growth: 51%
A549/ATCC; [3]
  Percent Growth: 87%
A549/ATCC; Log10 Concentration -8.0
  Percent Growth: 102%
A549/ATCC; PG=0
  TGI: 19.2 µM
A549/ATCC; PG=+50
  GI50: 1.05 µM
A549/ATCC; read-out: LC-50, PG=-50
  CC50: > 100 µM
ACHN; [2]
  Percent Growth: -4%
ACHN; Log10 Concentration -5.0
  Percent Growth: 79%
ACHN; Log10 Concentration -6.0, 1 µM
  Percent Growth: 102%
ACHN; [3]
  Percent Growth: 113%
ACHN; Log10 Concentration -8.0
  Percent Growth: 113%
ACHN; PG=0
  TGI: 89.1 µM
ACHN; PG=+50
  GI50: 22.4 µM
ACHN; read-out: LC-50, PG=-50
  CC50: > 100 µM
RPMI-8226; RPMI-8226
  GI50: 6.31 µM
RPMI-8226; RPMI-8226, read-out: LC-50
  CC50: > 100 µM
RPMI-8226; [4]
  activity at 0.01 µM: 104%
  activity at 0.1 µM: 101%
  activity at 1 µM: 99%
  activity at 10 µM: 38%
  activity at 100 µM: -38%
RPMI-8226; RPMI-8226, read-out: TGI
  IC (TGI): 31.5 µM
OVCAR-8; [2]
  Percent Growth: -17%
OVCAR-8; Log10 Concentration -5.0
  Percent Growth: 5%
OVCAR-8; Log10 Concentration -6.0, 1 µM
  Percent Growth: 28%
OVCAR-8; [3]
  Percent Growth: 67%
OVCAR-8; Log10 Concentration -8.0
  Percent Growth: 72%
OVCAR-8; PG=0
  TGI: 16.6 µM
OVCAR-8; PG=+50
  GI50: 0.274 µM
OVCAR-8; read-out: LC-50, PG=-50
  CC50: > 100 µM
SNB-19; [2]
  Percent Growth: 1%
SNB-19; Log10 Concentration -5.0
  Percent Growth: 0%
SNB-19; Log10 Concentration -6.0, 1 µM
  Percent Growth: 16%
SNB-19; [3]
  Percent Growth: 84%
SNB-19; Log10 Concentration -8.0
  Percent Growth: 95%
SNB-19; PG=0
  TGI: > 100 µM
SNB-19; PG=+50
  GI50: 0.318 µM
SNB-19; read-out: LC-50, PG=-50
  CC50: > 100 µM
HL-60 (TB); [2]
  Percent Growth: -43%
HL-60 (TB); Log10 Concentration -5.0
  Percent Growth: 93%
HL-60 (TB); Log10 Concentration -6.0, 1 µM
  Percent Growth: 121%
HL-60 (TB); [3]
  Percent Growth: 123%
HL-60 (TB); Log10 Concentration -8.0
  Percent Growth: 118%
HL-60 (TB); PG=0
  TGI: 48.5 µM
HL-60 (TB); PG=+50
  GI50: 20.8 µM
HL-60 (TB); read-out: LC-50, PG=-50
  CC50: > 10000 µM
